Source: ChEMBL document CHEMBL5338742, “Neurotherapeutic Potential of Water-Soluble pH-Responsive Prodrugs of EIDD-036 in Traumatic Brain Injury” (J Med Chem, 2023)

Assays:
[1] = Stability of the compound in PBS buffer at pH 7.2 assessed as half life at 25 degreeC by HPLC analysis; format: physicochemical
[2] = Aqueous solubility of compound; format: physicochemical; conditions: buffer
[3] = Stability of the compound in PBS buffer at pH 7.2 assessed as half life in the presence of MeCN by HPLC analysis; format: physicochemical
[4] = Stability in human plasma assessed as half life at 37 degreeC by LC-MS/MS analysis; format: ADME, cell-free
[5] = Cmax in Sprague-Dawley rat assessed as cmax of parent compound at 2 mg/kg,iv measured for 0.08 to 10 hrs by LC-MS/MS analysis; format: ADME, organism-based; set-up: dose 2 mg/kg, time 0.08-10 hrs, route iv; conditions: in vivo
[6] = AUC (0-last) in Sprague-Dawley rat assessed as AUC (0-last) of parent compound at 10 mg/kg,IM measured for 0.25 to 10 hrs by LC-MS/MS analysis; format: ADME, organism-based; set-up: time 0.25-10 hrs, dose 10 mg/kg, route im; conditions: in vivo
[7] = AUC (0-last) in Sprague-Dawley rat assessed as AUC (0-last) of parent compound at 2 mg/kg,iv measured for 0.08 to 10 hrs by LC-MS/MS analysis; format: ADME, organism-based; set-up: dose 2 mg/kg, time upper 10 hrs, time lower 0.08 hrs, route iv; conditions: in vivo
[8] = Solubility of compound in normal saline; format: physicochemical
[9] = Stability of the compound in 0.1 M HCl; format: physicochemical
[10] = AUC (0-last) in Sprague-Dawley rat at 10 mg/kg, IM measured for 0.25 to 10 hrs by LC-MS/MS analysis; format: ADME, organism-based; set-up: time upper 10 hrs, dose 10 mg/kg, time lower 0.25 hrs, route im; conditions: in vivo
[11] = Stability of the compound in PBS buffer at pH 7.2 assessed as half life at 37 degreeC by LC-MS/MS analysis; format: physicochemical
[12] = Stability of the compound in 0.15 M NaCl; format: physicochemical
[13] = Stability of the compound in 1 M NaCl; format: physicochemical
[14] = Stability of the compound in PBS buffer at 4 degreeC; format: physicochemical
[15] = Cmax in Sprague-Dawley rat at 10 mg/kg,im measured for 0.25 to 10 hrs by LC-MS/MS analysis; format: ADME, organism-based; set-up: time lower 0.25 hrs, dose 10 mg/kg, time upper 10 hrs, route im; conditions: in vivo
[16] = Stability of the compound at pH 5; format: physicochemical; conditions: buffer
[17] = Cmax in Sprague-Dawley rat assessed as cmax of parent compound at 10 mg/kg,IM measured for 0.25 to 10 hrs by LC-MS/MS analysis; format: ADME, organism-based; set-up: time upper 10 hrs, time lower 0.25 hrs, dose 10 mg/kg, route im; conditions: in vivo
[18] = Cmax in Sprague-Dawley rat at 2 mg/kg,iv measured for 0.08 to 10 hrs by LC-MS/MS analysis; format: ADME, organism-based; set-up: dose 2 mg/kg, time 0.08-10 hrs, route iv; conditions: in vivo
[19] = AUC (0-last) in Sprague-Dawley rat at 2 mg/kg,iv measured for 0.08 to 10 hrs by LC-MS/MS analysis; format: ADME, organism-based; set-up: dose 2 mg/kg, time 0.08-10 hrs, route iv; conditions: in vivo
[20] = Stability of the compound in PBS buffer at 37 degreeC; format: physicochemical
Rattus norvegicus = test: Neuroprotective activity against Sprague-Dawley rat model of traumatic brain injury assessed as reduction in cerebral edema at 10 mg/kg, IM administered for 1 to 6 hrs measured after 24 hrs relative to control; format: functional; set-up: scale not given: the % may be the effect or the level left; conditions: time 25-30 hrs
[21] = Stability of the compound at pH 3; format: physicochemical; conditions: buffer
HepG2 = test: Cytotoxicity against human HepG2 cells assessed as maximum cytolysis at 100 uM by Maestro Z Impedance Assay relative to control; format: toxicity, cell-based; conditions: hepg2, 100 µM
[22] = Cytotoxicity against human HepG2 cells by Maestro Z Impedance Assay; format: toxicity, cell-based

C/C(=N\OC(=O)[C@@H](N)C(C)C)[C@H]1CC[C@H]2[C@@H]3CCC4=CC(=O)CC[C@]4(C)[C@H]3CC[C@]12C.Cl
half-life [1]: 11 h
solubility [2]: 146 µM

C/C(=N\OC(=O)N(C)CCNCCOC(F)(F)F)[C@H]1CC[C@H]2[C@@H]3CCC4=CC(=O)CC[C@]4(C)[C@H]3CC[C@]12C.Cl
half-life [3]: 28.5 h
half-life [4]: 1.7 h
solubility [2]: < 1 mg/mL

C/C(=N\OC(=O)N(C)C[C@@H]1CCCN1)[C@H]1CC[C@H]2[C@@H]3CCC4=CC(=O)CC[C@]4(C)[C@H]3CC[C@]12C.Cl
Cmax [5]: 328 ng/mL
AUClast [6]: 1304 ng·h/mL
AUClast [7]: 176 ng·h/mL
solubility [8]: > 50 mg/mL
half-life [9]: 1.3 h
AUC(0-t) [10]: 288 ng·h/mL
half-life [11]: 1.9 h
half-life [1]: 1.9 h
half-life [12]: > 240 h
half-life [13]: 168 h
half-life [14]: 74.4 h
Cmax [15]: 224 ng/mL
half-life [16]: 175 h
Cmax [17]: 954 ng/mL
Cmax [18]: 122 ng/mL
AUC(0-t) [19]: 62.9 ng·h/mL
half-life [20]: 1 h
Activity (Rattus norvegicus): 40%
half-life [21]: 192 h

C/C(=N\OC(=O)OCCN)[C@H]1CC[C@H]2[C@@H]3CCC4=CC(=O)CC[C@]4(C)[C@H]3CC[C@]12C.Cl
half-life [1]: 0.11 h

CNCCN(C)C(=O)O/N=C(\C)[C@H]1CC[C@H]2[C@@H]3CCC4=CC(=O)CC[C@]4(C)[C@H]3CC[C@]12C.Cl
half-life [1]: 46.9 h
half-life [4]: 2.7 h

CNCCN(CCO)C(=O)O/N=C(\C)[C@H]1CC[C@H]2[C@@H]3CCC4=CC(=O)CC[C@]4(C)[C@H]3CC[C@]12C.Cl
half-life [1]: 24.8 h
half-life [4]: 1.6 h

CNC[C@@H]1CCCN1C(=O)O/N=C(\C)[C@H]1CC[C@H]2[C@@H]3CCC4=CC(=O)CC[C@]4(C)[C@H]3CC[C@]12C.Cl
half-life [1]: > 240 h
half-life [4]: > 4 h

C/C(=N\OC(=O)N(C)C[C@@H]1CCCN1C)[C@H]1CC[C@H]2[C@@H]3CCC4=CC(=O)CC[C@]4(C)[C@H]3CC[C@]12C.Cl
half-life [11]: > 2 h
half-life [4]: 0.9 h

C/C(=N\OC(=O)N(C)CCNCCO)[C@H]1CC[C@H]2[C@@H]3CCC4=CC(=O)CC[C@]4(C)[C@H]3CC[C@]12C.Cl
half-life [1]: 30.4 h
half-life [4]: 2.8 h

C/C(=N\OC(=O)OC[C@@H]1CCCN1)[C@H]1CC[C@H]2[C@@H]3CCC4=CC(=O)CC[C@]4(C)[C@H]3CC[C@]12C.Cl
half-life [1]: 0.09 h

CN1C[C@@H]2CCCN2C1=O
Activity (HepG2): 30%
CC50 [22]: > 100 µM

CNCCCN(C)C(=O)O/N=C(\C)[C@H]1CC[C@H]2[C@@H]3CCC4=CC(=O)CC[C@]4(C)[C@H]3CC[C@]12C.Cl
half-life [1]: > 240 h
half-life [4]: > 4 h

C/C(=N\OC(=O)NCCN)[C@H]1CC[C@H]2[C@@H]3CCC4=CC(=O)CC[C@]4(C)[C@H]3CC[C@]12C.Cl
half-life [1]: > 240 h
half-life [4]: > 2 h

C/C(=N\OC(=O)OCCN(C)C)[C@H]1CC[C@H]2[C@@H]3CCC4=CC(=O)CC[C@]4(C)[C@H]3CC[C@]12C.Cl
half-life [1]: 3.5 h
half-life [4]: 7.2 h

C/C(=N\OC(=O)N1CCC[C@H]1CN)[C@H]1CC[C@H]2[C@@H]3CCC4=CC(=O)CC[C@]4(C)[C@H]3CC[C@]12C.Cl
half-life [1]: > 240 h
half-life [4]: > 4 h

C/C(=N\OC(=O)N(C)CCNCCF)[C@H]1CC[C@H]2[C@@H]3CCC4=CC(=O)CC[C@]4(C)[C@H]3CC[C@]12C.Cl
half-life [1]: 36.1 h
half-life [4]: 2.2 h

C/C(=N\OC(=O)NC[C@@H]1CCCN1)[C@H]1CC[C@H]2[C@@H]3CCC4=CC(=O)CC[C@]4(C)[C@H]3CC[C@]12C.Cl
half-life [1]: > 240 h
half-life [4]: > 4 h

C/C(=N\OC(=O)N(C)C[C@@H]1CCCCN1)[C@H]1CC[C@H]2[C@@H]3CCC4=CC(=O)CC[C@]4(C)[C@H]3CC[C@]12C.Cl
half-life [1]: > 240 h

C/C(=N\OCOP(=O)([O-])[O-])[C@H]1CC[C@H]2[C@@H]3CCC4=CC(=O)CC[C@]4(C)[C@H]3CC[C@]12C.[Na+].[Na+]
Cmax [5]: 219 ng/mL
AUClast [6]: 753 ng·h/mL
AUClast [7]: 48 ng·h/mL
AUC(0-t) [10]: 724 ng·h/mL
Cmax [15]: 1360 ng/mL
Cmax [17]: 425 ng/mL
Cmax [18]: 182 ng/mL
AUC(0-t) [19]: 22 ng·h/mL
solubility [2]: > 150 mg/mL

C/C(=N\OC(=O)NCCN(C)C)[C@H]1CC[C@H]2[C@@H]3CCC4=CC(=O)CC[C@]4(C)[C@H]3CC[C@]12C.Cl
half-life [1]: > 240 h
half-life [4]: > 3.5 h

C/C(=N\OC(=O)NC[C@@H]1CCCCN1)[C@H]1CC[C@H]2[C@@H]3CCC4=CC(=O)CC[C@]4(C)[C@H]3CC[C@]12C.Cl
half-life [1]: > 240 h

CNCC(C)(C)CN(C)C(=O)O/N=C(\C)[C@H]1CC[C@H]2[C@@H]3CCC4=CC(=O)CC[C@]4(C)[C@H]3CC[C@]12C.Cl
half-life [1]: > 240 h
half-life [4]: > 4 h

CC(=O)[C@H]1CC[C@H]2[C@@H]3CCC4=C/C(=N/OC(=O)[C@@H](N)C(C)C)CC[C@]4(C)[C@H]3CC[C@]12C.Cl
half-life [1]: 10 h
solubility [2]: 172 µM
